Results from PubChem BioAssay (NCI).
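Where inhibition never reached the appropriate level, the endpoint shown equals the highest concentration tested. Otherwise, values were interpolated linearly from a five-concentration, 48-hour dose response in 96-well plates. At the TGI there is no net growth.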

Experiments:
Experiment in all cases: DTP human tumour cell line panel, 48 h
DU-145 prostate = tested on: DU-145 prostate
MDA-MB-435 = tested on: MDA-MB-435
EKVX NSCLC = tested on: EKVX NSCLC
SK-OV-3 ovarian = tested on: SK-OV-3 ovarian
U251 CNS = tested on: U251 CNS
IGROV1 ovarian = tested on: IGROV1 ovarian
A549 NSCLC = tested on: A549 NSCLC
OVCAR-8 ovarian = tested on: OVCAR-8 ovarian
CAKI-1 renal = tested on: CAKI-1 renal
SW-620 colon = tested on: SW-620 colon
K-562 leukemia = tested on: K-562 leukemia
SK-MEL-5 melanoma = tested on: SK-MEL-5 melanoma
HCT-116 colon = tested on: HCT-116 colon
ACHN renal = tested on: ACHN renal
T-47D breast = tested on: T-47D breast
SNB-19 CNS = tested on: SNB-19 CNS
SK-MEL-2 melanoma = tested on: SK-MEL-2 melanoma
MOLT-4 leukemia = tested on: MOLT-4 leukemia
MDA-N = tested on: MDA-N
OVCAR-4 ovarian = tested on: OVCAR-4 ovarian
NCI-H226 lung = tested on: NCI-H226 lung
SR leukemia = tested on: SR leukemia
SF-539 CNS = tested on: SF-539 CNS
SK-MEL-28 melanoma = tested on: SK-MEL-28 melanoma
BT-549 breast = tested on: BT-549 breast
HT29 colon = tested on: HT29 colon
786-0 renal = tested on: 786-0 renal
UO-31 renal = tested on: UO-31 renal
KM12 colon = tested on: KM12 colon
SN12C renal = tested on: SN12C renal
MALME-3M melanoma = tested on: MALME-3M melanoma
HOP-62 NSCLC = tested on: HOP-62 NSCLC
MDA-MB-231 breast = tested on: MDA-MB-231 breast
CCRF-CEM leukemia = tested on: CCRF-CEM leukemia
NCI-H522 lung = tested on: NCI-H522 lung
HL-60(TB) leukemia = tested on: HL-60(TB) leukemia
COLO 205 colon = tested on: COLO 205 colon
UACC-257 melanoma = tested on: UACC-257 melanoma
HOP-92 NSCLC = tested on: HOP-92 NSCLC
MCF7 breast = tested on: MCF7 breast
A498 renal = tested on: A498 renal
NCI-H23 lung = tested on: NCI-H23 lung
OVCAR-3 ovarian = tested on: OVCAR-3 ovarian
TK-10 renal = tested on: TK-10 renal
SF-268 CNS = tested on: SF-268 CNS
UACC-62 melanoma = tested on: UACC-62 melanoma
HS 578T breast = tested on: HS 578T breast
NCI/ADR-RES ovarian = tested on: NCI/ADR-RES ovarian
SF-295 CNS = tested on: SF-295 CNS
NCI-H460 lung = tested on: NCI-H460 lung
SNB-75 CNS = tested on: SNB-75 CNS
LOX IMVI melanoma = tested on: LOX IMVI melanoma
HCC-2998 colon = tested on: HCC-2998 colon
RPMI-8226 leukemia = tested on: RPMI-8226 leukemia
HCT-15 colon = tested on: HCT-15 colon
M14 melanoma = tested on: M14 melanoma
PC-3 prostate = tested on: PC-3 prostate
OVCAR-5 ovarian = tested on: OVCAR-5 ovarian

CCc1n[nH]c(=O)n1O
TGI (DU-145 prostate): > 100 µM | TGI (MDA-MB-435): > 100 µM | TGI (EKVX NSCLC): > 100 µM | TGI (SK-OV-3 ovarian): > 100 µM | TGI (U251 CNS): > 100 µM | TGI (IGROV1 ovarian): > 100 µM | TGI (A549 NSCLC): > 100 µM | TGI (OVCAR-8 ovarian): > 100 µM | TGI (CAKI-1 renal): > 100 µM | TGI (SW-620 colon): > 100 µM | TGI (K-562 leukemia): > 100 µM | TGI (SK-MEL-5 melanoma): > 100 µM | TGI (HCT-116 colon): > 100 µM | TGI (ACHN renal): > 100 µM | TGI (T-47D breast): > 100 µM | TGI (SNB-19 CNS): > 100 µM | TGI (SK-MEL-2 melanoma): > 100 µM | TGI (MOLT-4 leukemia): > 100 µM | TGI (MDA-N): > 100 µM | TGI (OVCAR-4 ovarian): > 100 µM | TGI (NCI-H226 lung): > 100 µM | TGI (SR leukemia): > 100 µM | TGI (SF-539 CNS): > 100 µM | TGI (SK-MEL-28 melanoma): > 100 µM | TGI (BT-549 breast): > 100 µM | TGI (HT29 colon): > 100 µM | TGI (786-0 renal): > 100 µM | TGI (UO-31 renal): > 100 µM | TGI (KM12 colon): > 100 µM | TGI (SN12C renal): > 100 µM | TGI (MALME-3M melanoma): > 100 µM | TGI (HOP-62 NSCLC): > 100 µM | TGI (MDA-MB-231 breast): > 100 µM | TGI (CCRF-CEM leukemia): > 100 µM | TGI (NCI-H522 lung): > 100 µM | TGI (HL-60(TB) leukemia): > 100 µM | TGI (COLO 205 colon): > 100 µM | TGI (UACC-257 melanoma): > 100 µM | TGI (HOP-92 NSCLC): > 100 µM | TGI (MCF7 breast): > 100 µM | TGI (A498 renal): > 100 µM | TGI (NCI-H23 lung): > 100 µM | TGI (OVCAR-3 ovarian): > 100 µM | TGI (TK-10 renal): > 100 µM | TGI (SF-268 CNS): > 100 µM | TGI (UACC-62 melanoma): > 100 µM | TGI (HS 578T breast): > 100 µM | TGI (NCI/ADR-RES ovarian): > 100 µM | TGI (SF-295 CNS): > 100 µM

CCC1OC(=O)CC(O)C(C)C(OC2OC(C)C(O)C(N(C)C)C2O)C(CC=O)CC(C)C(=O)/C=C/C2(C)OC2C1C (stereo unspecified)
TGI (DU-145 prostate): > 100 µM | TGI (MDA-MB-435): > 100 µM | TGI (EKVX NSCLC): > 100 µM | TGI (SK-OV-3 ovarian): > 100 µM | TGI (U251 CNS): > 100 µM | TGI (IGROV1 ovarian): 47.6 µM | TGI (A549 NSCLC): > 100 µM | TGI (OVCAR-8 ovarian): 18.3 µM | TGI (CAKI-1 renal): 82.1 µM | TGI (SW-620 colon): 41.2 µM | TGI (K-562 leukemia): > 100 µM | TGI (SK-MEL-5 melanoma): > 100 µM | TGI (NCI-H460 lung): > 100 µM | TGI (HCT-116 colon): 37.2 µM | TGI (ACHN renal): > 100 µM | TGI (T-47D breast): 53.7 µM | TGI (SNB-19 CNS): > 100 µM | TGI (SK-MEL-2 melanoma): > 100 µM | TGI (MOLT-4 leukemia): 41.2 µM | TGI (MDA-N): > 100 µM | TGI (OVCAR-4 ovarian): > 100 µM | TGI (NCI-H226 lung): > 100 µM | TGI (SNB-75 CNS): 90 µM | TGI (SR leukemia): 44.6 µM | TGI (SF-539 CNS): 80.5 µM | TGI (LOX IMVI melanoma): 34.1 µM | TGI (HCC-2998 colon): 31.2 µM | TGI (RPMI-8226 leukemia): 34.6 µM | TGI (HCT-15 colon): > 100 µM | TGI (SK-MEL-28 melanoma): > 100 µM | TGI (BT-549 breast): 99.6 µM | TGI (HT29 colon): 37 µM | TGI (M14 melanoma): 39.2 µM | TGI (786-0 renal): 72.6 µM | TGI (KM12 colon): 29.6 µM | TGI (SN12C renal): 30.5 µM | TGI (MALME-3M melanoma): 27.4 µM | TGI (HOP-62 NSCLC): > 100 µM | TGI (MDA-MB-231 breast): 66.2 µM | TGI (CCRF-CEM leukemia): 60.2 µM | TGI (NCI-H522 lung): 33 µM | TGI (HL-60(TB) leukemia): > 100 µM | TGI (COLO 205 colon): 36.3 µM | TGI (UACC-257 melanoma): 44.7 µM | TGI (PC-3 prostate): > 100 µM | TGI (MCF7 breast): 50.7 µM | TGI (OVCAR-5 ovarian): > 100 µM | TGI (A498 renal): 94.3 µM | TGI (NCI-H23 lung): 91.8 µM | TGI (OVCAR-3 ovarian): 73.6 µM | TGI (TK-10 renal): > 100 µM | TGI (SF-268 CNS): 79.8 µM | TGI (UACC-62 melanoma): 49.8 µM | TGI (HS 578T breast): 76.1 µM | TGI (SF-295 CNS): > 100 µM

S=C(Nc1ccccc1)c1ccc(CN2CCCCC2)s1
TGI (DU-145 prostate): > 100 µM | TGI (MDA-MB-435): 35.8 µM | TGI (EKVX NSCLC): > 100 µM | TGI (SK-OV-3 ovarian): 36.9 µM | TGI (U251 CNS): 44.2 µM | TGI (IGROV1 ovarian): 48.9 µM | TGI (A549 NSCLC): 98.3 µM | TGI (OVCAR-8 ovarian): 39.7 µM | TGI (CAKI-1 renal): 48.8 µM | TGI (SW-620 colon): 44.7 µM | TGI (K-562 leukemia): 43.6 µM | TGI (SK-MEL-5 melanoma): 31.2 µM | TGI (NCI-H460 lung): 45.4 µM | TGI (HCT-116 colon): 34.5 µM | TGI (ACHN renal): > 100 µM | TGI (T-47D breast): 85.3 µM | TGI (SNB-19 CNS): 44 µM | TGI (SK-MEL-2 melanoma): 43.5 µM | TGI (MOLT-4 leukemia): 71.4 µM | TGI (MDA-N): 33.4 µM | TGI (OVCAR-4 ovarian): > 100 µM | TGI (SR leukemia): 51.5 µM | TGI (SF-539 CNS): > 100 µM | TGI (LOX IMVI melanoma): 32.5 µM | TGI (HCC-2998 colon): 37.9 µM | TGI (RPMI-8226 leukemia): 70.4 µM | TGI (HCT-15 colon): 36.2 µM | TGI (SK-MEL-28 melanoma): 35.3 µM | TGI (BT-549 breast): 61.3 µM | TGI (HT29 colon): 24.1 µM | TGI (M14 melanoma): 32.9 µM | TGI (786-0 renal): 34.2 µM | TGI (UO-31 renal): 30.6 µM | TGI (KM12 colon): 36.9 µM | TGI (MALME-3M melanoma): 46.6 µM | TGI (HOP-62 NSCLC): 64.8 µM | TGI (CCRF-CEM leukemia): 41.3 µM | TGI (NCI-H522 lung): 35.4 µM | TGI (HL-60(TB) leukemia): 34.5 µM | TGI (COLO 205 colon): 36.4 µM | TGI (UACC-257 melanoma): 46.2 µM | TGI (PC-3 prostate): > 100 µM | TGI (MCF7 breast): 35.7 µM | TGI (OVCAR-5 ovarian): 35 µM | TGI (A498 renal): 37.4 µM | TGI (NCI-H23 lung): 42.8 µM | TGI (OVCAR-3 ovarian): > 100 µM | TGI (SF-268 CNS): > 100 µM | TGI (UACC-62 melanoma): 37.2 µM | TGI (HS 578T breast): 60.5 µM | TGI (NCI/ADR-RES ovarian): > 100 µM | TGI (SF-295 CNS): 37.5 µM
